Results as given in US20230010299A1, “HETEROCYCLIC TRPML1 AGONISTS” (LIBRA THERAPEUTICS, INC., priority 2019, published 2023).

What was measured:
TRPML1 [1] = biological target: T1, TRPML1 (Homo sapiens, UniProt Q9GZU1); experiment: Cellular TRPML1 assay (FLIPR TETRA, GCaMP6f calcium read-out); format: cell-based; details: HEK T-REx/GCaMP6f/TRPML1 cells; Ca2+ response over 300 s, normalized to ML-SA1 50 μM; Ca2+ free or Optimem condition not given; read-out: Ec50 (Activity of TRPML1 agonists)
T1 construct: expressed in transfected cells
T1 sequence (Q9GZU1 whole entry): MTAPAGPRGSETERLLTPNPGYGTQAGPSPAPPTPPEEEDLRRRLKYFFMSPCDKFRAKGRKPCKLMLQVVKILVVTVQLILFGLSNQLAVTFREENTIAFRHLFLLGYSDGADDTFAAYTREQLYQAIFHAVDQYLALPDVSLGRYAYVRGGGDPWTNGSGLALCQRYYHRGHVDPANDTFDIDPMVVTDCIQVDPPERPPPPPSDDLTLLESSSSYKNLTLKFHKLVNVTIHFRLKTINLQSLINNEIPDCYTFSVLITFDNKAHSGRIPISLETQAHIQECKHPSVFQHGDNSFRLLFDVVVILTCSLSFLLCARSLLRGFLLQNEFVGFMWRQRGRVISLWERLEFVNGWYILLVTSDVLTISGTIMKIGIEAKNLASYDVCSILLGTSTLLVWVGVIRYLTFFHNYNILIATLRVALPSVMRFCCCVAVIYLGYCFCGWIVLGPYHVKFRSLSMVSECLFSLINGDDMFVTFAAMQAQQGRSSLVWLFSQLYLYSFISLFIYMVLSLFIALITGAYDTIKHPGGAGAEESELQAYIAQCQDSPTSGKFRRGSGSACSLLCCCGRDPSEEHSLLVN
Procedure: Buffers and reagents • PBS (D-PBS without calcium and magnesium; EuroClone) • Trypsin (Trypsin 0.05%, EDTA 0.02% in PBS; EuroClone) • DMSO (Sigma) • Ca^2+ free Tyrode's buffer: in-house solution (130 mM NaCl, 5 mM KCl, 1 mM MgCl2, 5 mM NaHCO3, 20 mM HEPES in water at pH 7.4; sterile filtered). • Opti-MEM (Gibco) • Agonist: ML-SA1 (Sigma); stock: 60 mM in DMSO, stored at −20° C. • Blocker: ML-SI3 (in house synthesis); stock: 20 mM in DMSO, stored at −20° C.
The final clone for the TRPML1 assay is HEK T-REx/GCaMP6f/TRPML1.
GCaMP6f is a genetically encoded calcium indicator that is stably expressed in this cell line and used as a fluorescent read-out.
Experiments are performed in 384 MTP format. Cells are seeded at 15000 cells/well either in 25 μl/well of growth medium or in 20 μl/well of Optimem+0.5% FBS without selection antibiotics. Twenty-four hours later, cells are assayed for the response to various compounds using the Ca^2+ sensitive GCaMP6f protein stably expressed in the cells as readout.
The experiment is performed in a 384-well format according to the following procedures for either Ca^2+ free or Optimem conditions: • Ca^2+ free condition (in absence of extracellular Ca^2+): • 24 h after seeding, pre-incubate the cells at room temperature for about 10′. • Then remove the culture medium and replace it with 20 μL of Ca^2+ free Tyrode's buffer. • Start the experiment at the FLIPR^TETRA by injecting 10 μL/w of 3× concentrated test compounds and controls in Ca^2+ free Tyrode's buffer. Monitor the kinetic response over a period of 300 seconds. • Final DMSO concentration: 0.5% • Optimem condition (in presence of extracellular Ca^2+): • 24 h after seeding, pre-incubate the cells at room temperature for about 10′. • Start the experiment at the FLIPR^TETRA by injecting 10 μL/w of 3× concentrated test compounds and controls in Ca^2+ free Tyrode's buffer. Monitor the kinetic response over a period of 300 seconds. • Final DMSO concentration: 0.5%
Data from FLIPR^TETRA measurements are analyzed with the Genedata Screener® software.
Stimulator controls (Col 2): injection of ML-SA1 EC100 (50 μM) in alternated wells positions
Neutral controls (Col 2): injection of 0 mM Ca^2+ free Tyrode's buffer in alternated wells positions.
Test wells (Col 3-22): test compounds dose response curve from either 100 μM with 1:2 dilution steps or from 50 μM with 1:3.16 dilution steps.

TRPML1 [2] = biological target: T1, TRPML1; experiment: TRPML1 automated patch-clamp (QPatch 16X); format: cell-based; details: HEK T-REx/GcaMP6f/TRPML1 cells, current with compound/current in vehicle, extracellular pH 4.6
Procedure: TRPML1—Automated Patch-Clamp
HEK T-REx/GcaMP6f/TRPML1 cells were cultured in DMEM High Glucose (Lonza BioWhittaker cat. BE12-604F/U1; 500 mL) supplemented with Fetal Bovine Serum TET-FREE (Euroclone cat. EC S0182L; 50 mL, Penicillin-Streptomycin (BioWhittaker, cat. DE17-602E; 5 mL of 100× Solution), G418 (Sigma, cat. G8168; 0.25 mg/ml) and Zeocyn (InvivoGen, cat. ant-zn-1; 50 μg/ml).
HEK T-REx/GcaMP6f/TRPML1 cells were seeded 48 or 72 hours before experiment, at a concentration of 8*10^6/4*10^6 cells onto a T225 flask. Just before the experiments, cells were washed twice with D-PBS w/o Ca^2+/Mg^2+ (Euroclone cat. ECB4004L) and detached from the flask with trypsin-EDTA (Sigma cat. T4174; diluted 1/10). Cells were then re-suspended in the suspension solution: 25 mL EX-CELL ACF CHO medium(Sigma cat. C5467); 0.625 mL HEPES (Sigma cat. H0887); 0.25 mL of 100× Penicillin/Streptomycin (Euroclone cat. ECB3001D), 0.1 mL of Soybean Trypsin Inhibitor 10 mg/mL (Sigma cat. T6522) and placed on the QPatch 16X.
Dilution from stock were prepared just before the experiments in the extracellular solution (0.25% final DMSO concentration). DMSO solution was obtained from AppliChem (cat. A3672)
Patch Clamp Solutions: • Intracellular solution (mM): 120 CsMeSO3, 4 NaCl, 2 MgCl2, 10 EGTA, 20 HEPES, 2 Mg-ATP (pH 7.2 with CsOH). • Extracellular solution (mM): 140 NaGluconate, 5 KCl, 1 MgCl2, 2 CaCl2), 10 Glucose, 10 MES (pH 4.6 with HCl).
Patch Clamp Analysis—QPatch 16X
For the voltage clamp experiments on TRPML1, data were sampled at 5 KHz. After establishment of the seal and the passage in the whole cell configuration, the cells were held at −20 mV and the TRPML1 current was evoked using the voltage protocol illustrated in FIG. 2, applied every 5 sec. (50 ms at −20 mV; 20 ms at −120 mV, 1000 ms ramp from −120 to […]; 20 ms at +40 mV, and back to −20 mV); in the absence (vehicle period, i.e. 0.25% DMSO) and in the presence of increasing concentrations (3) of the compound under investigation.
Agonists: For data collection, the Sophion proprietary software was used and the analysis was performed off-line using Excel and GraphPad Prism (V 8.00). Results are reported in Table 6, expressed as TRPML1 current fold increase evoked by the compound under investigation (i.e. current in the presence of the compound/current in vehicle).

EC50 (TRPML1 [1])	SMILES	other results
5.7 µM	CN(C)S(=O)(=O)c1ccc(S(=O)(=O)Nc2ccccc2N2CCC(Oc3cccnc3)CC2)cc1 [Example 86, N1,N1-dimethyl-N4-{2-[4-(pyridin-3-yloxy)piperidin-1-yl]phenyl}benzene-1,4-disulfonamide]	–
18.5 µM	CCCNC(=O)C1CCN(c2ccccc2NS(=O)(=O)c2ccc(S(=O)(=O)N(C)C)cc2)CC1 [Example 87, 1-{2-[4-(dimethylsulfamoyl)benzenesulfonamido]phenyl}-N-propylpiperidine-4-carboxamide]	–
3.2 µM	CN(C)S(=O)(=O)c1ccc(S(=O)(=O)Nc2ccccc2N2CCC(Oc3ncccn3)CC2)cc1 [Example 89]	–
10.7 µM	Cc1ccc(S(=O)(=O)Nc2ccccc2N2CCN(C(=O)OC(C)(C)C)CC2)c2cccnc12 [Example 95, tert-butyl 4-(2-((8-methylquinoline)-5-sulfonamido)phenyl)piperazine-1-carboxylate]	–
2.8 µM	Cc1cc(S(=O)(=O)Nc2ccccc2N2CCC(Oc3ccccn3)CC2)c(C)s1 [Example 97, 2,5-dimethyl-N-(2-(4-(pyridin-2-yloxy)piperidin-1-yl)phenyl)thiophene-3-sulfonamide]	–
3.3 µM	Cc1ccc(S(=O)(=O)Nc2ccccc2N2CCC(Oc3ccccn3)CC2)cn1 [Example 98, 6-methyl-N-(2-(4-(pyridin-2-yloxy)piperidin-1-yl)phenyl)pyridine-3-sulfonamide]	–
6.8 µM	CN(C)S(=O)(=O)c1ccc(S(=O)(=O)Nc2ccccc2N2CCOC(c3ccccc3)C2)cc1 (stereo not drawn) [Example 100, N1,N1-dimethyl-N4-(2-(2-phenylmorpholino)phenyl)benzene-1,4-disulfonamide]	–
4 µM	CN(C)S(=O)(=O)c1ccc(S(=O)(=O)Nc2ccccc2N2CCOC(Cc3ccccc3)C2)cc1 (stereo not drawn) [Example 101, N1-(2-(2-benzylmorpholino)phenyl)-N4,N4-dimethylbenzene-1,4-disulfonamide]	–
14.8 µM	CC(C)N(C(=O)c1ccc(S(C)(=O)=O)cc1)c1ccccc1N1CCC(Oc2cnccn2)CC1 [Example 103, N-isopropyl-4-(methylsulfonyl)-N-(2-(4-(pyrazin-2-yloxy)piperidin-1-yl)phenyl)benzamide]	–
18 µM	COC(=O)C1CCN(c2ccccc2NS(=O)(=O)c2ccc(S(=O)(=O)N(C)C)cc2)CC1 [Example 105, methyl 1-(2-((4-(N,N-dimethylsulfamoyl)phenyl)sulfonamido)phenyl)piperidine-4-carboxylate]	–
8.6 µM	CN(C)S(=O)(=O)c1ccc(S(=O)(=O)Nc2ccccc2N2CCC(Oc3ccncc3)CC2)cc1 [Example 106, N1,N1-dimethyl-N4-(2-(4-(pyridin-4-yloxy)piperidin-1-yl)phenyl)benzene-1,4-disulfonamide]	–

The next lines start with the molecule.

SMILES	EC50 (TRPML1 [1])	other results
CN(C)S(=O)(=O)c1ccc(S(=O)(=O)NC2CCCCC2N2CCC(Oc3ccccc3)CC2)cc1 (single isomer, unassigned) [Example 63, N1,N1-dimethyl-N4-[2-(4-phenoxypiperidin-1-yl)cyclohexyl]benzene-1,4-disulfonamide]	1.7 µM	Qpatch Assay TRPML1 agonism Current fold increase Mean ± SEM (n) (TRPML1 [2]; 0.3 μM compound): 0.042 ± 0.153 (2); Qpatch Assay TRPML1 agonism Current fold increase Mean ± SEM (n) (TRPML1 [2]; 3.0 μM compound): 0.86 ± 0.60 (2); Qpatch Assay TRPML1 agonism Current fold increase Mean ± SEM (n) (TRPML1 [2]; 30 μM compound): 4.3 ± 0.9 (2)
CN(C)S(=O)(=O)c1ccc(S(=O)(=O)Nc2ccccc2N2CCC(Oc3ccccc3)CC2)cc1 [Example 24, N1,N1-dimethyl-N4-[2-(4-phenoxypiperidin-1-yl)phenyl]benzene-1,4-disulfonamide]	2.1 µM	Qpatch Assay TRPML1 agonism Current fold increase Mean ± SEM (n) (TRPML1 [2]; 0.3 μM compound): 4.6 ± 1.8 (4); Qpatch Assay TRPML1 agonism Current fold increase Mean ± SEM (n) (TRPML1 [2]; 3.0 μM compound): 168.8 ± 96.1 (4); Qpatch Assay TRPML1 agonism Current fold increase Mean ± SEM (n) (TRPML1 [2]; 30 μM compound): 687.7 (1)
Cc1noc(C)c1S(=O)(=O)Nc1ccccc1N1CCN(C(=O)OC(C)(C)C)CC1 [Example 64, tert-butyl 4-(2-((3,5-dimethylisoxazole)-4-sulfonamido)phenyl)piperazine-1-carboxylate]	36.4 µM	–
CCCOC1CCN(c2ccccc2NS(=O)(=O)c2ccc(C)cc2C)CC1 [Example 66, 2,4-dimethyl-N-(2-(4-propoxypiperidin-1-yl)phenyl)benzenesulfonamide]	22.1 µM	–
CCCOC1CCN(c2ccccc2NS(=O)(=O)c2cc(C)oc2C)CC1 [Example 67, 2,5-dimethyl-N-(2-(4-propoxypiperidin-1-yl)phenyl)furan-3-sulfonamide]	37.8 µM	–
CCC(=O)N1CCN(c2ccccc2NS(=O)(=O)c2ccc(S(=O)(=O)N(C)C)cc2)CC1 [Example 71, N1,N1-dimethyl-N4-[2-(4-propanoylpiperazin-1-yl)phenyl]benzene-1,4-disulfonamide]	17.3 µM	–
CN1CCc2cc(S(=O)(=O)Nc3ccccc3N3CCN(C(=O)OC(C)(C)C)CC3)ccc21 [Example 72, tert-butyl 4-(2-((l-methylindoline)-5-sulfonamido)phenyl)piperazine-1-carboxylate]	3 µM	–
CN(C)S(=O)(=O)c1ccc(S(=O)(=O)Nc2ccccc2N2CCN(C(=O)c3cccs3)CC2)cc1 [Example 79, N1,N1-dimethyl-N4-{2-[4-(thiophene-2-carbonyl)piperazin-1-yl]phenyl}benzene-1,4-disulfonamide]	8.8 µM	–
Cc1ncsc1C(=O)N1CCN(c2ccccc2NS(=O)(=O)c2ccc(S(=O)(=O)N(C)C)cc2)CC1 [Example 80, N1,N1-dimethyl-N4-{2-[4-(4-methyl-1,3-thiazole-5-carbonyl)piperazin-1-yl]phenyl}benzene-1,4-disulfonamide]	18.9 µM	–
CN(C)S(=O)(=O)c1ccc(S(=O)(=O)Nc2ccccc2N2CCN(C(=O)Cc3cccs3)CC2)cc1 [Example 81, N1,N1-dimethyl-N4-(2-{4-[2-(thiophen-2-yl)acetyl]piperazin-1-yl}phenyl)benzene-1,4-disulfonamide]	11.1 µM	–
